Legend:
[1] = tested on: FP-hTeloC (DNA, i motif, 5'-fluoromonophosphate) TAACCCTAACCCTAACCCTAACCC; test: 19F NMR titration; details: Na+ (50 mM sodium citrate); apparent; pH 4.2, 10% D2O; 212.5 μM FP-hTeloC, 80 μM AMPF reference
[2] = tested on: FP-hTeloC (DNA, i motif, 5'-fluoromonophosphate) TAACCCTAACCCTAACCCTAACCC; test: UV/VIS melting, 295 nm; details: Na+ (50 mM citrate buffer); pH 5.5, 10% D2O; 4 μM DNA; destabilised by excess mitoxantrone
[3] = tested on: hTeloC (DNA, i motif) TAACCCTAACCCTAACCCTAACCC; test: UV/VIS melting, 295 nm; details: Na+ (50 mM citrate buffer); pH 5.5, 10% D2O; destabilised by excess mitoxantrone
[4] = tested on: FP-hTeloC, ssDNA form at pH 6.4 (DNA, single strand, 5'-fluoromonophosphate) TAACCCTAACCCTAACCCTAACCC; test: 19F NMR chemical shift change; details: Na+ (10 mM sodium cacodylate, 100 mM NaCl); pH 6.4, 10% D2O; i-motif:ssDNA 45:55; ΔδF = −0.02 ppm
[5] = tested on: FP-hTeloC (DNA, i motif, 5'-fluoromonophosphate) TAACCCTAACCCTAACCCTAACCC; test: 19F NMR melting, i-motif signal; details: Na+ (50 mM citrate buffer); pH 5.5, 10% D2O; 250 μM DNA, two equivalents mitoxantrone (+1.1 °C at 0.3 equivalents)
[6] = tested on: FPON1 (DNA, i motif, 5'-fluoromonophosphate) TCCCCC; test: 19F NMR titration; details: Na+ (50 mM sodium citrate); pH 4.2, 10% D2O, 25 °C; 500 μM FPON1 (125 μM i-motif), 100 μM AMPF reference

Compound | Kd [1] [µM] | binding [2] | binding [3] | binding [4] | ΔTm [5] [°C] | Kd [6] [µM]
O=C1c2c(O)ccc(O)c2C(=O)c2c(NCCNCCO)ccc(NCCNCCO)c21 | 70 ± 30 | yes | yes | weak | −3.2 | –
C[n+]1ccc(-c2c3nc(c(-c4cc[n+](C)cc4)c4ccc([nH]4)c(-c4cc[n+](C)cc4)c4nc(c(-c5cc[n+](C)cc5)c5ccc2[nH]5)C=C4)C=C3)cc1 | – | – | – | – | – | 180 ± 30
